Reference: patent US10117430B2, “Malononitrile compounds for controlling animal pests” (BASF SE, priority 2012, dated 2018)

Assays:
Type in all cases: in vivo
[1] = tested on: Rice brown plant hopper (Nilaparvata lugens); test: B.11 Rice brown plant hopper test on sprayed rice seedlings; conditions: in comparison with untreated controls, after 72 hours
Procedure, shortened: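 Compounds formulated in 50:50 acetone:water with 0.1% vol/vol surfactant and sprayed onto potted rice seedlings. Air-dried plants were caged, infested with 10 adults and held at about 28-29 °C, 50-60% RH. Percent mortality scored after 72 hours.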

[2] = tested on: Cowpea Aphid (Aphis craccivora); test: B.1 Cowpea aphid spray test on potted cowpea plants; conditions: in comparison with untreated controls, population reduction assessed after 24, 72 and 120 hours
Protocol: B.1 Cowpea Aphid (Aphis craccivora)
The active compounds were formulated in 50:50 (v/v) acetone:water. The test solution was prepared at the day of use. Potted cowpea plants colonized with approximately 100-150 aphids of various stages were sprayed after the pest population has been recorded. Population reduction was assessed after 24, 72, and 120 hours.

[3] = tested on: Southern Armyworm (Spodoptera eridania); test: B.6 Southern armyworm test on sprayed lima bean plants; conditions: 96 h, in comparison with untreated controls, 4 days after treatment
Protocol: B.6 Southern Armyworm (Spodoptera eridania)
The active compounds were formulated in cyclohexanone as a 10,000 ppm solution supplied in 1.3 ml ABgene® tubes. These tubes were inserted into an automated electrostatic sprayer equipped with an atomizing nozzle and they served as stock solutions for which lower dilutions were made in 50% acetone:50% water (v/v). A nonionic surfactant (Kinetic®) was included in the solution at a volume of 0.01% (v/v). Lima bean plants (variety Sieva) were grown 2 plants to a pot and selected for treatment at the 1st true leaf stage. Test solutions were sprayed onto the foliage by an automated electrostatic plant sprayer equipped with an atomizing spray nozzle. The plants were dried in the sprayer fume hood and then removed from the sprayer. Each pot was placed into perforated plastic bags with a zip closure. Ten to 11 armyworm larvae were placed into the bag and the bags zipped closed. Test plants were maintained in a growth room at 25° C. and 20-40% relative humidity for 4 days, avoiding direct exposure to fluorescent light (24 hour photoperiod) to prevent trapping of heat inside the bags. Mortality and reduced feeding were assessed 4 days after treatment, compared to untreated control plants.

[4] = tested on: Green Peach Aphid (Myzus persicae); test: B.13 Green peach aphid test on sprayed bell pepper plants; conditions: 120 h, in comparison with untreated controls, after 5 days
Excerpt: B.13 Green Peach Aphid (Myzus persicae)
The active compounds were formulated in cyclohexanone as a 10,000 ppm solution supplied in tubes. The tubes were inserted into an automated electrostatic sprayer equipped with an atomizing nozzle and they served as stock solutions for which lower dilutions were made in 50% acetone:50% water (v/v). A nonionic surfactant (Kinetic®) was included in the solution at a volume of 0.01% (v/v). Bell pepper plants at the first true-leaf stage were infested prior to treatment by placing heavily infested leaves from the main colony on top of the treatment plants. Aphids were allowed to transfer overnight to accomplish an infestation of 30-50 aphids per plant and the host leaves were removed. The infested plants were then sprayed by an automated electrostatic plant sprayer equipped with an atomizing spray nozzle. The plants were dried in the sprayer fume hood, removed, and then maintained in a growth room under fluorescent lighting in a 24-hr photoperiod at about 25° C. and about 20-40% relative humidity. Aphid mortality on the treated plants, relative to mortality on untreated control plants, was determined after 5 days.

[5] = tested on: Silverleaf Whitefly (Bemisia argentifolii); test: B.5 Silverleaf whitefly test on sprayed cotton plants; conditions: 72 h, in comparison with untreated controls, 3 days after treatment
Procedure, shortened: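 Cotyledon-stage cotton plants were electrostatically sprayed with compound diluted from a 10,000 ppm cyclohexanone stock into 50% acetone/water with 0.01% nonionic surfactant. After drying, 10–12 adult whiteflies (3–5 days old) were released onto each plant. Mortality was scored after 3 days at 25 °C and 20–40% RH against untreated plants.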

[6] = tested on: Cotton Aphid (Aphis gossypii, Mixed Life Stages); test: B.14 Cotton aphid test on sprayed cotton plants; conditions: 120 h, in comparison with untreated controls, after 5 days
Protocol: B.14 Cotton Aphid (Aphis gossypii, Mixed Life Stages)
The active compounds were formulated in cyclohexanone as a 10,000 ppm solution supplied in 1.3 ml ABgene® tubes. These tubes were inserted into an automated electrostatic sprayer equipped with an atomizing nozzle and they served as stock solutions for which lower dilutions were made in 50% acetone:50% water (v/v). A nonionic surfactant (Kinetic®) was included in the solution at a volume of 0.01% (v/v). Cotton plants at the cotyledon stage were infested with aphids prior to treatment by placing a heavily infested leaf from the main aphid colony on top of each cotyledon. Aphids were allowed to transfer overnight to accomplish an infestation of 80-100 aphids per plant and the host leaf was removed. The infested plants were then sprayed by an automated electrostatic plant sprayer equipped with an atomizing spray nozzle. The plants were dried in the sprayer fume hood, removed from the sprayer, and then maintained in a growth room under fluorescent lighting in a 24-hr photoperiod at 25° C. and 20-40% relative humidity. Aphid mortality on the treated plants, relative to mortality on untreated control plants, was determined after 5 days.

[7] = tested on: Yellow Fever Mosquito (Aedes aegypti); test: whole plant or invertebrate; conditions: 48 h, in comparison with untreated controls, larval mortality after 2 days
Procedure, shortened: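 Freshly hatched larvae (5-15 per well) in 200 μl tap water; compounds formulated in 75% water/25% DMSO and sprayed at 2.5 μl per well at several concentrations, two replicates. Incubated 2 days at 28±1° C., 80±5% RH; larval mortality scored visually.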

[8] = tested on: Boll Weevil (Anthonomus grandis); test: B.9 Boll weevil microtiter diet test, egg and larval mortality; conditions: 120 h, in comparison with untreated controls, egg and larval mortality after 5 days
Procedure, shortened: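 Insect diet carrying 20-30 A. grandis eggs per well was sprayed with compounds formulated in 75% water/25% DMSO, at various concentrations with two replicates. Plates were held at about 23±1° C and 50±5% RH for 5 days. Egg and larval mortality were then scored visually.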

[9] = tested on: Green Peach Aphid (Myzus persicae); test: B.3 Green peach aphid systemic test, artificial diet under membrane; conditions: 72 h, concentration of the test solution 2500 mg/L, 3 days
Procedure, shortened: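 Systemic uptake from artificial liquid diet beneath a membrane, compound formulated in 75% water/25% DMSO and added to diet at several concentrations, two replicates. 5-8 adult aphids fed on treated diet for 3 days at about 23±1° C. and 50±5% RH. Mortality and fecundity scored visually.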

CC(c1ccc(F)cn1)C(C#N)(C#N)c1ccccc1 (stereo not shown) [II-8]
≥ 75%: mortality at 300 ppm [1] | mortality at 500 ppm [2] | mortality at 300 ppm ([3]; 300 ppm) | mortality at 500 ppm ([3]; 500 ppm) | mortality at 300 ppm [4] | mortality at 500 ppm [5] | mortality at 300 ppm [6] | mortality at 2500 ppm [7] | mortality at 2500 ppm [8] | mortality at 2500 µg/mL [9]
